According to US11352340B2, “Pyridine and pyridimine compounds as PI3K-gamma inhibitors” (Incyte Corporation, priority 2016, dated 2022):
Structures can show the parent of a compound that is named as a salt.

Columns and labels:
[1] = molecular target: PI3Kγ (p110γ) Recombinant Human Protein (Homo sapiens (Human), UniProt P48736); assay: PI3K-γ Scintillation Proximity Assay; type: biochemical; details: read-out: PI3K-gamma SPA IC50
From the text: Example B. PI3K-γ Scintillation Proximity Assay
(§1) [γ-^33P]ATP (10 mCi/mL) and Wheat Germ Agglutinin (WGA) YSi SPA Scintillation Beads was purchased from Perkin-Elmer (Waltham, Mass.). Lipid kinase substrate, D-myo-Phosphatidylinositol 4,5-bisphosphate (PtdIns(4,5)P2)D (+)-sn-1,2-di-O-octanoylglyceryl, 3-O-phospho linked (PIP2), CAS 204858-53-7, was purchased from Echelon Biosciences (Salt Lake City, Utah). PI3Kγ (p110γ) Recombinant Human Protein was purchased from Life technology (Grand Island, N.Y.). ATP, MgCl2, DTT, EDTA, MOPS and CHAPS were purchased from Sigma-Aldrich (St. Louis, Mo.).
(§2) The kinase reaction was conducted in polystyrene 384-well Greiner Bio-one white plate from Thermo Fisher Scientific in a final volume of 25 μL. Inhibitors were first diluted serially in DMSO and added to the plate wells before the addition of other reaction components. The final concentration of DMSO in the assay was 2%. The PI3Kγ assay was carried out at room temperature in 20 mM MOPS, pH 6.7, 10 mM MgCl2, 5 mM DTT and CHAPS 0.03%. Reactions were initiated by the addition of ATP, the final reaction mixture consisted of 20 μM PIP2, 2 μM ATP, 0.5 μCi [γ-^33P] ATP, 13 nM PI3Kγ. Reactions were incubated for 120 min and terminated by the addition of 40 μL SPA beads suspended in quench buffer: 163 mM potassium phosphate pH 7.8, 20% glycerol, 25 mM EDTA. The final concentration of SPA beads is 1.0 mg/mL. After the plate sealing, plates were shaken overnight at room temperature and centrifuged at 1500 rpm for 10 min, the radioactivity of the product was determined by scintillation counting on Topcount (Perkin-Elmer). IC50 determination was performed by fitting the curve of percent of the solvent control activity versus the log of the inhibitor concentration using the GraphPad Prism 6.0 software.

[2] = molecular target: PI3Kδ (p110δ/p85α) Recombinant Human Protein (Homo sapiens (Human), UniProt O00329); assay: PI3Kδ Scintillation Proximity Assay; type: biochemical; details: read-out: PI3K-delta SPA IC50
Sequence of PI3Kδ (p110δ/p85α) Recombinant Human Protein (O00329 whole entry): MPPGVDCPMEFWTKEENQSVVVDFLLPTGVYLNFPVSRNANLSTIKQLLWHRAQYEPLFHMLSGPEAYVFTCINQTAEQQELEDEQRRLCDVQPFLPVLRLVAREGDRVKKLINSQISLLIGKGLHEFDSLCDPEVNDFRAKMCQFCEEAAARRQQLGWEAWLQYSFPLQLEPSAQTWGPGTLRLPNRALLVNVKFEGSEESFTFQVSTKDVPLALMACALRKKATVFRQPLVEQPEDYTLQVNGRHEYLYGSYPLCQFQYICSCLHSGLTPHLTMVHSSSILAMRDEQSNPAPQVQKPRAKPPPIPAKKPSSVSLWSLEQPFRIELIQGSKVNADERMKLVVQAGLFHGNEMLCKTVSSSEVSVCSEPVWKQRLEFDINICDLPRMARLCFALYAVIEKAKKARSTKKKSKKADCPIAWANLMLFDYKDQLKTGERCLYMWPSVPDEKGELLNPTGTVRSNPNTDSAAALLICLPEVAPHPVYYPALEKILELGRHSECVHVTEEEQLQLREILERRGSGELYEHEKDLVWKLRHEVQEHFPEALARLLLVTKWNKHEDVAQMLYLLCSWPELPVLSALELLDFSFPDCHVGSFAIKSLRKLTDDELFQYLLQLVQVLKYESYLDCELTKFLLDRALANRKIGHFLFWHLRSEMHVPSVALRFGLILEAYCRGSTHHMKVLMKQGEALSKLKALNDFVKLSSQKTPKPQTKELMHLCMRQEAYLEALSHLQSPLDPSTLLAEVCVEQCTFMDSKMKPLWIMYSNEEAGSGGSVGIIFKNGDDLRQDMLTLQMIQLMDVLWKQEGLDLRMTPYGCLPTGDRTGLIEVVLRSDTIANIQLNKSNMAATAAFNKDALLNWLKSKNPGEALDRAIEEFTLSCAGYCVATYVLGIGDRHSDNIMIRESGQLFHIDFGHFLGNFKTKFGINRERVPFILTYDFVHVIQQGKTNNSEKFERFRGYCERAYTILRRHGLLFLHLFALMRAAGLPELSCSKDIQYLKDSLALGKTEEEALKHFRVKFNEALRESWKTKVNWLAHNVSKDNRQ
Sequence of PI3Kδ (p110δ/p85α) Recombinant Human Protein (P27986 whole entry partner): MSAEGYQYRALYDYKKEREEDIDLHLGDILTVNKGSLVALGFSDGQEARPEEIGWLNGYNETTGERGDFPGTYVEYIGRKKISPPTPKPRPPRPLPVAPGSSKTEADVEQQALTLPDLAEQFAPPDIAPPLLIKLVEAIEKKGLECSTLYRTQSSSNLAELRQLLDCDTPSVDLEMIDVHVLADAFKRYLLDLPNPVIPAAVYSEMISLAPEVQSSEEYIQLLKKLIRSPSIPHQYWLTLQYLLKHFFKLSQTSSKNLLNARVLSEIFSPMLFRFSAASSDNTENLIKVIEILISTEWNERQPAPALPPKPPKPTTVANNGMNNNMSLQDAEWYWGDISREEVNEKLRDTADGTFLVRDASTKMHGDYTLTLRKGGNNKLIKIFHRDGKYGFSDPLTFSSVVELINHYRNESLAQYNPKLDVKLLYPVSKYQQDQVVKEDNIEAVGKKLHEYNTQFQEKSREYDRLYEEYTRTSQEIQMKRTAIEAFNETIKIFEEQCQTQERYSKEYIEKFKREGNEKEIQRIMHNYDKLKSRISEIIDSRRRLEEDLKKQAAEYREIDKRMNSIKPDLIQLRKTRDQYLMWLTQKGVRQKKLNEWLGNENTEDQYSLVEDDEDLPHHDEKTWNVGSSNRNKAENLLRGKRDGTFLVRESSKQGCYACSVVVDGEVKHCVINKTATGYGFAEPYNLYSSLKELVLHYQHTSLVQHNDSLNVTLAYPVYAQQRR
From the text: Example C. PI3Kδ Scintillation Proximity Assay
as §1, with “PI3Kδ (p110δ/p85α)” for “PI3Kγ (p110γ)”, “Eurofins (St Charles, Mo.).” for “Life technology (Grand Island, N.Y.).”
as §2, with “PI3Kδ” for “PI3Kγ”, “3.4” for “13”, “PI3Kδ.” for “PI3Kγ.”

Sequence of PI3Kγ (p110γ) Recombinant Human Protein (P48736 whole entry): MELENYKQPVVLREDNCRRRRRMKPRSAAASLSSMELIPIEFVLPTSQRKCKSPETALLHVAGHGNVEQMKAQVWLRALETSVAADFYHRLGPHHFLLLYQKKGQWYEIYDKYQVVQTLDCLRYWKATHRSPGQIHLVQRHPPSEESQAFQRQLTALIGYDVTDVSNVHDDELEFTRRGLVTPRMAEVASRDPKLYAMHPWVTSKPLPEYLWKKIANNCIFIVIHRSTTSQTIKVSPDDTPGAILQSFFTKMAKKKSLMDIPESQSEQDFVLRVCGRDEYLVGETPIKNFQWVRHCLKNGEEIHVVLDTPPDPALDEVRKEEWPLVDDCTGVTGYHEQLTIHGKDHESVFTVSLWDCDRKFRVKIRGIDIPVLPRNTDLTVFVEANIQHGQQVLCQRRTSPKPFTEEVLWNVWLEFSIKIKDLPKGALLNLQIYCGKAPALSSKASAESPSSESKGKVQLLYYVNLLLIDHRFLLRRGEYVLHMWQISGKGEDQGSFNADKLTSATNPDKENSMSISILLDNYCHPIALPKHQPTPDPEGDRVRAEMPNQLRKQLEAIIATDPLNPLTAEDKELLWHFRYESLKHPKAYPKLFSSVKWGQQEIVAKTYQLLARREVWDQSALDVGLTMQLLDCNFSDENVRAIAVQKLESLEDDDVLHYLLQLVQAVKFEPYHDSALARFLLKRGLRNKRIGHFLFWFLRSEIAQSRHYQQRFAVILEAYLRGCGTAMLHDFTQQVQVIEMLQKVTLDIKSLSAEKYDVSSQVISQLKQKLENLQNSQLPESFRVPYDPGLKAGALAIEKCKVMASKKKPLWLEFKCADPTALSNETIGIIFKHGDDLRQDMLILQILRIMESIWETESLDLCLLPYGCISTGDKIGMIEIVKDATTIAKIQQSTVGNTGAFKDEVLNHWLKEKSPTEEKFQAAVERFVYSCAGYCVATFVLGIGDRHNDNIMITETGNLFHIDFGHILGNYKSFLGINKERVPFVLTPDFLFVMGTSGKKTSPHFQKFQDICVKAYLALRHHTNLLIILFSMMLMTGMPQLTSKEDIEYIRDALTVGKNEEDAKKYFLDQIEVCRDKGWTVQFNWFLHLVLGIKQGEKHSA

| Structure (SMILES) | IC50 [1] [nM] | IC50 [2] [nM] |
| --- | --- | --- |
| COC(=O)c1ccc(Cn2cc(-c3ccnc(-c4ncc(-c5ccccc5)[nH]4)c3)cn2)cc1 [Example 32, Methyl 4-((4-(2-(5-phenyl-1H-imidazol-2-yl)pyridin-4-yl)-1H-pyrazol-1-yl)methyl)benzoate trifluoroacetate salt] | ≤ 500 | > 500 |
| O=C(O)c1ccccc1Cn1cc(-c2ccnc(-c3ncc(-c4ccccc4)[nH]3)c2)cn1 [Example 33, 2-((4-(2-(5-Phenyl-1H-imidazol-2-yl)pyridin-4-yl)-1H-pyrazol-1-yl)methyl)benzoic acid trifluoroacetate salt] | > 500 | ≤ 500 |
| O=C(O)c1cccc(Cn2cc(-c3ccnc(-c4ncc(-c5ccccc5)[nH]4)c3)cn2)c1 [Example 34, 3-((4-(2-(5-Phenyl-1H-imidazol-2-yl)pyridin-4-yl)-1H-pyrazol-1-yl)methyl)benzoic acid trifluoroacetate salt] | ≤ 500 | ≤ 500 |
| O=C(O)c1ccc(Cn2cc(-c3ccnc(-c4ncc(-c5ccccc5)[nH]4)c3)cn2)cc1 [Example 35, 4-((4-(2-(5-Phenyl-1H-imidazol-2-yl)pyridin-4-yl)-1H-pyrazol-1-yl)methyl)benzoic acid trifluoroacetate salt] | ≤ 500 | ≤ 500 |
| CN1CCN(c2cncc(-c3ccnc(-c4ncc(-c5ccccc5)[nH]4)c3)c2)CC1 [Example 37, 5-(4-Methylpiperazin-1-yl)-2′-(5-phenyl-1H-imidazol-2-yl)-3,4′-bipyridin trifluoroacetate salt] | > 500 | > 500 |
| c1ccc(-c2cnc(-c3cc(-c4ccc(N5CCOCC5)nc4)ccn3)[nH]2)cc1 [Example 41, 4-(2′-(5-Phenyl-1H-imidazol-2-yl)-3,4′-bipyridin-6-yl)morpholine trifluoroacetate salt] | > 500 | ≤ 50 |
| CS(=O)(=O)n1cc(-c2ccnc(-c3ncc(-c4ccccc4)[nH]3)c2)cn1 [Example 44, 4-(1-(Methylsulfonyl)-1H-pyrazol-4-yl)-2-(5-phenyl-1H-imidazol-2-yl)pyridine trifluoroacetate salt] | > 500 | ≤ 500 |
| CCS(=O)(=O)n1cc(-c2ccnc(-c3ncc(-c4ccccc4)[nH]3)c2)cn1 [Example 45, 4-(1-(Ethylsulfonyl)-1H-pyrazol-4-yl)-2-(5-phenyl-1H-imidazol-2-yl)pyridine trifluoroacetate salt] | ≤ 500 | ≤ 500 |
| c1ccc(-c2cnc(-c3cc(-c4cnn(C5CCOCC5)c4)ccn3)[nH]2)cc1 [Example 47, 2-(5-Phenyl-1H-imidazol-2-yl)-4-(1-(tetrahydro-2H-pyran-4-yl)-1H-pyrazol-4-yl)pyridine trifluoroacetate salt] | ≤ 500 | ≤ 50 |
| NC(=O)Cn1cc(-c2ccnc(-c3ncc(-c4ccccc4)[nH]3)c2)cn1 [Example 48, 2-(4-(2-(5-Phenyl-1H-imidazol-2-yl)pyridin-4-yl)-1H-pyrazol-1-yl)acetamide trifluoroacetate salt] | > 500 | > 500 |
| CN(C)C(=O)Cn1cc(-c2ccnc(-c3ncc(-c4ccccc4)[nH]3)c2)cn1 [Example 49, N,N-Dimethyl-2-(4-(2-(5-phenyl-1H-imidazol-2-yl)pyridin-4-yl)-1H-pyrazol-1-yl)acetamide trifluoroacetate salt] | > 500 | > 500 |
| O=C(Cn1cc(-c2ccnc(-c3ncc(-c4ccccc4)[nH]3)c2)cn1)N1CCCC1 [Example 50, 2-(4-(2-(5-Phenyl-1H-imidazol-2-yl)pyridin-4-yl)-1H-pyrazol-1-yl)-1-(pyrrolidin-1-yl)ethanone trifluoroacetate salt] | > 500 | > 500 |
| O=C(Cn1cc(-c2ccnc(-c3ncc(-c4ccccc4)[nH]3)c2)cn1)N1CCOCC1 [Example 51, 1-Morpholino-2-(4-(2-(5-phenyl-1H-imidazol-2-yl)pyridin-4-yl)-1H-pyrazol-1-yl)ethanone trifluoroacetate salt] | > 500 | > 500 |
| N#CCCn1cc(-c2ccnc(-c3ncc(-c4ccccc4)[nH]3)c2)cn1 [Example 52, 3-(4-(2-(5-Phenyl-1H-imidazol-2-yl)pyridin-4-yl)-1H-pyrazol-1-yl)propanenitrile trifluoroacetate salt] | > 500 | ≤ 500 |
| NC(=O)CCn1cc(-c2ccnc(-c3ncc(-c4ccccc4)[nH]3)c2)cn1 [Example 53, 3-(4-(2-(5-Phenyl-1H-imidazol-2-yl)pyridin-4-yl)-1H-pyrazol-1-yl)propanamide] | > 500 | > 500 |
| CCOC(=O)CCn1cc(-c2ccnc(-c3ncc(-c4ccccc4)[nH]3)c2)cn1 [Example 55, Ethyl 3-(4-(2-(5-phenyl-1H-imidazol-2-yl)pyridin-4-yl)-1H-pyrazol-1-yl)propanoate trifluoroacetate salt] | ≤ 500 | ≤ 500 |
| O=C(O)CCn1cc(-c2ccnc(-c3ncc(-c4ccccc4)[nH]3)c2)cn1 [Example 57, 3-(4-(2-(5-Phenyl-1H-imidazol-2-yl)pyridin-4-yl)-1H-pyrazol-1-yl)propanoic acid trifluoroacetate salt] | ≤ 500 | ≤ 100 |
| CNC(=O)CCn1cc(-c2ccnc(-c3ncc(-c4ccccc4)[nH]3)c2)cn1 [Example 58, N-Methyl-3-(4-(2-(5-phenyl-1H-imidazol-2-yl)pyridin-4-yl)-1H-pyrazol-1-yl)propanamide trifluoroacetate salt] | > 500 | > 500 |
| O=C(CCn1cc(-c2ccnc(-c3ncc(-c4ccccc4)[nH]3)c2)cn1)NC1CCCC1 [Example 59, N-cyclopentyl-3-(4-(2-(5-phenyl-1H-imidazol-2-yl)pyridin-4-yl)-1H-pyrazol-1-yl)propanamide trifluoroacetate salt] | > 500 | > 500 |
| COc1cncc(-c2ccnc(-c3cnc(N)[nH]3)c2)c1 [Example 61, 5-(5-Methoxy-3,4′-bipyridin-2′-yl)-1H-imidazol-2-amine] | > 500 | > 500 |
| COc1cncc(-c2ccnc(-c3cnc(NCC(C)C)[nH]3)c2)c1 [Example 64, N-Isobutyl-5-(5-methoxy-3,4′-bipyridin-2′-yl)-1H-imidazol-2-amine trifluoroacetate salt] | ≤ 500 | > 500 |
| COc1cncc(-c2ccnc(-c3nnc[nH]3)c2)c1 [Example 72, 5-Methoxy-2′-(4H-1,2,4-triazol-3-yl)-3,4′-bipyridine] | > 500 | > 500 |
| COc1cncc(-c2ccnc(-c3nnc(C)[nH]3)c2)c1 [Example 73, 5-Methoxy-2′-(5-methyl-4H-1,2,4-triazol-3-yl)-3,4′-bipyridine] | > 500 | > 500 |
| COc1cncc(-c2ccnc(-c3nc(C)c(NC(C)=O)[nH]3)c2)c1 [Example 75, N-[2-(5-Methoxy-3,4′-bipyridin-2′-yl)-4-methyl-1H-imidazol-5-yl]acetamide] | > 500 | > 500 |
| COc1cncc(-c2ccnc(-c3nc4c([nH]3)CCC4)c2)c1 [Example 78, 2-(5-Methoxy-3,4′-bipyridin-2′-yl)-1,4,5,6-tetrahydrocyclopenta[d]imidazole] | ≤ 500 | ≤ 500 |
